Measurements as given in US20240115654A1, “INTRAVENOUS ADMINISTRATION OF ENGINEERED ANTIMICROBIAL AMPHIPHILIC PEPTIDES” (priority 2021, published 2024).
Values joined by “and” are separate entries in the source; they are usually repeats but may differ in a detail not shown here. Equal entries are not always repeated. Where two headings read alike, the source gives them in different places. Peptide text beside a SMILES is read from it.

Conditions: for increase of AUC0-t / increase of mean AUC0-24: Cohorts 1 to 3
[1] = Cohort 4, 0.5 mg/kg IV infusion 2 hours, Max
[2] = Cohort 4, 0.5 mg/kg IV infusion 2 hours, Mean
[3] = Cohort 4, 0.5 mg/kg IV infusion 2 hours, Min
[4] = Cohort 4, 0.5 mg/kg IV, infusion 2 hours, cohort Geometric Mean
[5] = Cohort 4, 0.5 mg/kg IV, infusion 2 hours, cohort Mean
[6] = Cohort 4, 0.5 mg/kg IV, infusion 2 hours, cohort Median
[7] = Cohort 5, 1 mg/kg IV infusion 4 hours, Max
[8] = Cohort 5, 1 mg/kg IV infusion 4 hours, Min
[9] = Phase 1 subjects, 1-hr IV infusion
[10] = over the 5-fold increase in dose
[11] = single 1-hour infusion 0.05 mg/kg, Geometric Mean
[12] = single 1-hour infusion 0.05 mg/kg, Max
[13] = single 1-hour infusion 0.05 mg/kg, Mean
[14] = single 1-hour infusion 0.05 mg/kg, Median
[15] = single 1-hour infusion 0.05 mg/kg, Min
[16] = single 1-hour infusion 0.05 mg/kg, individual subjects
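Note: phase 1 study in human subjects given one IV dose of the peptide, enrolled in sequential ascending-dose cohorts and randomized to peptide or placebo.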

For `CC(C)[C@H](NC(=O)[C@H](Cc1c[nH]c2ccccc12)NC(=O)[C@H](CCCNC(=N)N)NC(=O)[C@H](CCCNC(=N)N)NC(=O)[C@@H](NC(=O)[C@@H](NC(=O)[C@H](CCCNC(=N)N)NC(=O)[C@@H](NC(=O)[C@@H](NC(=O)[C@H](CCCNC(=N)N)NC(=O)[C@H](CCCNC(=N)N)NC(=O)[C@H](Cc1c[nH]c2ccccc12)NC(=O)[C@@H](NC(=O)[C@H](CCCNC(=N)N)NC(=O)[C@H](CCCNC(=N)N)NC(=O)[C@@H](NC(=O)[C@H](CCCNC(=N)N)NC(=O)[C@H](CCCNC(=N)N)NC(=O)[C@@H](NC(=O)[C@H](Cc1c[nH]c2ccccc12)NC(=O)[C@H](CCCNC(=N)N)NC(=O)[C@@H](N)CCCNC(=N)N)C(C)C)C(C)C)C(C)C)C(C)C)C(C)C)C(C)C)C(C)C)C(=O)N[C@@H](CCCNC(=N)N)C(=O)N[C@@H](CCCNC(=N)N)C(N)=O` [SEQ ID NO: 1] (H-RRWVRRVRRVWRRVVRVVRRWVRR-NH2), which AUC(0-inf) [1] is on record?
The AUC(0-inf) was 13500 ng·h/mL.

What about the AUC(0-t) [1] of the same compound?
Its AUC(0-t) is 12200 ng·h/mL.

What about the AUCextrap [1] of the same compound?
Its AUCextrap is 12.8%.

What about the Cmax [1] of the same compound?
Its Cmax is 2310 ng/mL.

What about the t1/2 [1] of the same compound?
The t1/2 was 21.1 h.

And the AUCextrap [2]?
Its AUCextrap is 8.22%.

And the CL/F [2]?
The CL/F was 1.07 mL/min/kg.

And the AUCextrap (Cohort 4, 0.5 mg/kg IV infusion 2 hours, Median)?
Its AUCextrap is 8.81%.

And the AUC0-24 [3]?
Its AUC0-24 is 3190 ng·h/mL.

What about the AUC(0-inf) [3] of the same compound?
The AUC(0-inf) was 3870 ng·h/mL.

What about the AUC(0-t) [3] of the same compound?
Its AUC(0-t) is 3440 ng·h/mL.

What about the AUCextrap [3] of the same compound?
The AUCextrap was 3.65%.

What about the CL/F [3] of the same compound?
The CL/F was 0.615 mL/min/kg.

What about the Cmax [3] of the same compound?
Its Cmax is 994 ng/mL.

And the t1/2 [3]?
Its t1/2 is 11.5 h.

What about the “Plasma Concentration by Nominal Time from Start of Infusion, Mean” value (Cohort 4, 0.5 mg/kg IV, infusion 2 hours, 0.0 h, cohort mean N 6) of the same compound?
Its value is 0.00 ng/mL.

And the “Plasma Concentration by Nominal Time from Start of Infusion” value (Cohort 4, 0.5 mg/kg IV, infusion 2 hours, 0.0 h, individual subjects)?
Its value is 0.00 ng/mL.

And the “Plasma Concentration by Nominal Time from Start of Infusion” value (Cohort 4, 0.5 mg/kg IV, infusion 2 hours, 4.0 h, individual subjects)?
Its value is 457 ng/mL and 502 ng/mL and 614 ng/mL.

What about the “Plasma Concentration by Nominal Time from Start of Infusion” value (Cohort 4, 0.5 mg/kg IV, infusion 2 hours, 6.0 h, individual subjects) of the same compound?
The value was 249 ng/mL and 448 ng/mL and 472 ng/mL.

And the “Plasma Concentration by Nominal Time from Start of Infusion” value (Cohort 4, 0.5 mg/kg IV, infusion 2 hours, 8.0 h, individual subjects)?
Its value is 164 ng/mL and 311 ng/mL and 377 ng/mL.

And the AUCextrap [4]?
The AUCextrap was 7.38%.

And the CL/F [4]?
Its CL/F is 0.977 mL/min/kg.

What about the Tlast [4] of the same compound?
Its Tlast is 46 h.

What about the λz [4] of the same compound?
Its λz is 0.0443 h⁻¹.

And the AUCextrap [5]?
The AUCextrap was 8.22%.

What about the CL/F [5] of the same compound?
The CL/F was 1.07 mL/min/kg.

What about the Tlast [5] of the same compound?
Its Tlast is 46 h.

What about the λz [5] of the same compound?
The λz was 0.0457 h⁻¹.

What about the AUCextrap [6] of the same compound?
Its AUCextrap is 8.81%.

What about the CL/F [6] of the same compound?
The CL/F was 0.892 mL/min/kg.

What about the Tlast [6] of the same compound?
Its Tlast is 50 h.

And the λz [6]?
Its λz is 0.0461 h⁻¹.

What about the Tlast (Cohort 4, 0.5 mg/kg IV, infusion 2 hours, individual subjects) of the same compound?
Its Tlast is 38 h (2×) and 50 h (4×).

What about the “Plasma Concentration by Nominal Time from Start of Infusion, Mean” value (Cohort 5, 1 mg/kg IV 4-hr infusion, 0.0 h, cohort mean) of the same compound?
Its value is 0.00 ng/mL.

And the AUCextrap (Cohort 5, 1 mg/kg IV infusion 4 hours, Geometric Mean)?
Its AUCextrap is 8.61%.

And the AUC0-24 [7]?
The AUC0-24 was 28800 ng·h/mL.

What about the AUC(0-inf) [7] of the same compound?
The AUC(0-inf) was 25700 ng·h/mL.

What about the AUC(0-t) [7] of the same compound?
Its AUC(0-t) is 34300 ng·h/mL.

And the AUCextrap [7]?
The AUCextrap was 17.8%.

What about the t1/2 [7] of the same compound?
Its t1/2 is 28.3 h.

What about the AUCextrap (Cohort 5, 1 mg/kg IV infusion 4 hours, Mean) of the same compound?
The AUCextrap was 10.8%.

And the AUCextrap (Cohort 5, 1 mg/kg IV infusion 4 hours, Median)?
The AUCextrap was 11.6%.

And the AUC0-24 [8]?
The AUC0-24 was 14000 ng·h/mL.

And the AUC(0-inf) [8]?
The AUC(0-inf) was 17400 ng·h/mL.

And the AUC(0-t) [8]?
The AUC(0-t) was 15800 ng·h/mL.

And the AUCextrap [8]?
The AUCextrap was 2.43%.

And the Cmax [8]?
The Cmax was 2030 ng/mL.

What about the t1/2 [8] of the same compound?
Its t1/2 is 9.59 h.

And the AUC(0-inf) (Cohort 5, 1 mg/kg IV infusion 4 hours, individual subject)?
Its AUC(0-inf) is 17400 ng·h/mL and 19900 ng·h/mL and 25700 ng·h/mL.

What about the “actual dose-level exposure AUC0-24 relative to that predicted from animal data” value [9] of the same compound?
The value was 5-10 ×.

What about the “actual dose-level exposure Cmax relative to that predicted from animal data” value [9] of the same compound?
The value was “about 4 ×”.

And the “dose proportionality of AUC0-t” value (dose range 0.05 to 0.5 mg/kg, slope not significantly different from 1)?
Its value is “increased proportionally with dose increase”.

What about the “intercept estimate, log AUC0-∞ versus log dose” value (dose range 0.05 to 1 mg/kg) of the same compound?
Its value is 6.04.

What about the “slope estimate, log AUC0-∞ versus log dose” value (dose range 0.05 to 1 mg/kg, 90% CI=0.78 to 1.03) of the same compound?
The value was 0.91.

And the “increase of AUC0-t” value [10]?
The value was 4.2 fold.

And the “increase of mean AUC0-24” value [10]?
The value was 3.6 fold.

And the “increase of AUC0-t” value (over the […] increase in dose)?
Its value is 2.2 fold.

What about the “increase of mean AUC0-24” value (over the […] increase in dose) of the same compound?
Its value is 2.0 fold.

What about the AUCextrap [11] of the same compound?
Its AUCextrap is 8.36%.

What about the Tlast [11] of the same compound?
The Tlast was 24 h.

What about the λz [11] of the same compound?
The λz was 0.0946 h⁻¹.

And the AUC0-24 [12]?
The AUC0-24 was 1610 ng·h/mL.

And the AUC(0-inf) [12]?
The AUC(0-inf) was 1820 ng·h/mL.

And the AUC(0-t) [12]?
The AUC(0-t) was 1720 ng·h/mL.

And the AUCextrap [12]?
The AUCextrap was 12.1%.

And the CL/F [12]?
Its CL/F is 0.595 mL/min/kg.

And the Cmax [12]?
The Cmax was 341 ng/mL.

What about the Tlast [12] of the same compound?
Its Tlast is 37 h.

And the t1/2 [12]?
The t1/2 was 8.59 h.

What about the λz [12] of the same compound?
Its λz is 0.105 h⁻¹.

And the AUCextrap [13]?
The AUCextrap was 8.87%.

And the Tlast [13]?
The Tlast was 25 h.

And the λz [13]?
The λz was 0.095 h⁻¹.

What about the AUCextrap [14] of the same compound?
The AUCextrap was 8.12%.

What about the Tlast [14] of the same compound?
Its Tlast is 25 h.

What about the λz [14] of the same compound?
The λz was 0.0951 h⁻¹.

What about the AUC0-24 [15] of the same compound?
Its AUC0-24 is 619 ng·h/mL.

What about the AUC(0-t) [15] of the same compound?
Its AUC(0-t) is 515 ng·h/mL.

And the AUCextrap [15]?
Its AUCextrap is 4.54%.

What about the CL/F [15] of the same compound?
The CL/F was 0.457 mL/min/kg.

What about the Cmax [15] of the same compound?
The Cmax was 170 ng/mL.

And the Tlast [15]?
The Tlast was 13 h.

And the t1/2 [15]?
Its t1/2 is 6.62 h.

And the λz [15]?
The λz was 0.0807 h⁻¹.

And the AUC(0-inf) [16]?
The AUC(0-inf) was 1490 ng·h/mL and 1800 ng·h/mL and 1820 ng·h/mL.

What about the CL/F [16] of the same compound?
The CL/F was 0.562 mL/min/kg and 0.463 mL/min/kg and 0.457 mL/min/kg.

What about the Tlast [16] of the same compound?
Its Tlast is 25 h (4×) and 13 h and 37 h.
